Laboratory results as given in US10899932B2, “Non-amphoteric, quaternisable and water-soluble polymers for modifying the surface charge of solid particles” (priority 2014, dated 2021).

Experiment: Zeta potential measurement of aqueous suspensions of powders (Coulter DELSA 440 SX)
Assay type: physicochemical
Conditions: aqueous suspension, pH 4
From the text: The zeta potential can be determined directly from the direction and velocity of migration of the dispersed particles in an electrical field, on the basis of the following relation:
[formula] • ζ=zeta potential (in mV) • ε=dielectric constant of the dispersion medium • v=electrophoretic migration velocity (in cm/s) • η=viscosity of the dispersion medium (poise, 1 poise=0.1 Pa·s) • E=field strength (in […]) • f=numerical factor (friction factor), dependent on the shape of the particles, their conductivity, and the size of the particles in comparison to the thickness of the diffuse double layer
The migration velocity here is measured, depending on the size of the particles under investigation, either by means of observation through a light microscope or, particularly in the case of relatively small particles, by means of laser correlation spectroscopy.
The zeta potential of the aqueous suspensions of boron nitride, silicon carbide, diamond, deltamethrin and azoxystrobin powders, all produced in analogy to the example above, was determined as follows. The measurement took place with a Coulter DELSA 440 SX instrument. […] This reversal of the original surface charge was verified for the inventive particles by the experimental measurements below.

Structure (SMILES) | Zeta potential [mV]
CC1(C)[C@H](C(=O)O[C@H](C#N)c2cccc(Oc3ccccc3)c2)[C@@H]1C=C(Br)Br [CE7, Deltamethrin] | −32
CO/C=C(/C(=O)OC)c1ccccc1Oc1cc(Oc2ccccc2C#N)ncn1 [CE8, Azoxystrobin] | −36
